Test results from patent US20250154180A1, “CRK-LIKE (CRKL) ADAPTOR PROTEIN INHIBITORS AND METHODS OF MAKING AND USING THE SAME” (Rutgers, The State University of New Jersey, priority 2022, published 2025).

Columns and labels:
[1] = tested on: pCrkL, P-ERK1/2, pJNK, BIM in MDA-231 and MDA-468 cells; assay: Western blotting of pCrkL and downstream proteins, breast cancer cells; assay type: cell-based
Experimental: Western blotting—According to the company's protocol (Thermo Scientific, Waltham, MA). Western blotting was performed using 20 μg of total cell extracts. Briefly, transferred membranes were incubated with primary antibodies for […] according to the sensitivity of each antibody, followed by HRP-linked secondary antibody for 1 hour. Each membrane was stripped and re-probed for b-actin, which was used as an internal loading control. The protein bands were visualized using a chemiluminescence detection system (Thermo Scientific). The relative optical densities of each band were quantitated and indicated numerically below the bands in each Western blot.
To investigate the molecular mechanisms of Pomiferin-induced apoptosis in breast cancer cells. […] Cell proliferation was first determined by MTT assay as confirmation. […] CrkL is known to mediate the activation of both Raf/ERK and PI3K pathways. So, proteins that relate to these two pathways were utilized.
The Integrated Density Values (IDV) of each band were measured and shown under each blot. […] Inhibition of pCrkL breaks the balance of cell proliferation and death in triple-negative breast cancer cells by regulating these signaling transduction pathways (FIG. 15). The different expression of these proteins in TNBC vs. normal immune cells makes Pomiferin and compounds disclosed herein a candidate for cancer therapy.

CrkL = CrkL (Homo sapiens, UniProt P46109); assay type: biochemical
CrkL, sequence (P46109 whole entry, the tested form may be a part): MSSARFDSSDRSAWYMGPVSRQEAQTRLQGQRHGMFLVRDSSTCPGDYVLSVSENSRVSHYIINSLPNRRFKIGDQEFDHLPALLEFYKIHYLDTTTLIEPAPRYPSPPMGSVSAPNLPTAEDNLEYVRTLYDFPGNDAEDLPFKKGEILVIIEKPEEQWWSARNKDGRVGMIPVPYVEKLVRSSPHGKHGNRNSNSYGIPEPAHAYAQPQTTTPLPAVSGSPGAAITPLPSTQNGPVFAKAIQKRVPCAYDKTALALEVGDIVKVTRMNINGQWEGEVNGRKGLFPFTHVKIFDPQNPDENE
From the text: Single-molecule Fluorescence Resonance Energy Transfer (smFRET)—Single-molecule Fluorescence Resonance Energy Transfer (smFRET) was applied to monitor conformations of single molecules. CrkL has two cysteines (a relatively rare amino acid), one in its SH2 and another in SH3C domains. CrkL was mixed with a mixture of equal amounts of Alexa555-maleimide and Alexa647-maleimide (Invitrogen, USA) (10× over protein concentration) to randomly label the two cysteines. The labeled protein was purified from an unreacted dye by gel filtration. Molecules with exactly one donor and acceptor are identified in single-molecule data analysis and used for further analysis. […] The FRET change between non-phosphorylated CrkL and phosphorylated CrkL was measured. The dye-labeled protein was used in in vitro kinase assays with different drugs treatments as described above. smFRET measurements were performed with a prism-type total internal refection microscope (TIRF) where FRET efficiency is calculated from measured donor and acceptor intensities (Id and Ia, respectively) by FRET=Ia/(Id+Ia), as described previously. To surface immobilize 6×His tagged CrkL, the protein was added to the biotinylated 6×His antibody (Thermo Scientific Cat #: MA1-80087) bound to streptavidin, which was adsorbed to a quartz slide. A lipid bilayer was used to passivate the quartz surface. Phosphorylation was performed on the immobilized Crk in situ.
In intramolecular smFRET, non-radiative energy transfer occurs when two fluorophores attached to different parts of one molecule move close together. […] A cysteine-maleimide-based chemistry was used to label both CrkL and mutant (non-phosphorylatable) CrkL-Y207F. CrkL has a cysteine (a relatively rare amino acid) in its SH2 (labeled with AlexaFluor555) and SH3C (labeled with AlexaFluor647). […] Western Blot (WB) and immunoprecipitation (IP) was used to verify that labeled proteins retain the same gross functional properties as wild-type CrkL (e.g., are phosphorylatable and capable of binding SH2 and SH3 ligands). Briefly, site-specific labeled CrkL was mixed with Ab1 in the presence of Mg^2+ and ATP. A single AlphaScreen-identified candidate inhibitor was then added per assay.

[2] = tested on: PBNK cells killing activity towards SK-Hep1; assay: Cr51 release assay, PBNK killing of SK-Hep1; assay type: cell-based; details: 1 uM overnight
Experimental: PBNK cells were incubated with 1 uM NC5 or Compound III overnight, then cells were harvested for Cr51 release assay to check cell cytotoxicity. […] The star symbol indicates the significance of vehicle control vs. NC5 of the indicated E:T ratios. *p<0.05, **p<0.01, n=3.

[3] = tested on: PBNK killing in BXPC3 cells; assay: Cr51 release assay, PBNK killing of BXPC3; assay type: cell-based; details: 1 uM overnight
Experimental: In this example, activity of NC5 was evaluated for PBNK and CD147-CAR-NK killing in BXPC3 cells. PBNK or CD147-CAR-NK cells were incubated with 1 uM NC5 overnight, then cells were harvested for Cr51 release assay to check cell cytotoxicity. […] The star symbol indicates the significance of vehicle vs. NC5 of the indicated E:T ratios. *p<0.05, **p<0.01, n=3.

[4] = tested on: TM00089 TNBC patient-derived tumor; assay: TNBC patient-derived xenograft (PDX) TM00089 model; assay type: in vivo, mice
From the text: For the patient-derived xenograft (PDX) model, a cohort of mice engrafted with the TNBC tumor model #TM00089-Breast-Tumor Markers: TNBC ER−(estrogen receptor-negative)/PR—(progesterone receptor-negative)/HER2—(human epidermal growth factor receptor two negative), BRCA1 V757fs (4 to 6-weeks-old females) were obtained from Jackson Laboratories (Bar Harbor, ME). PDX models were generated by surgically engrafting tumor cells into the mammary fat pad of NSG™ (nonobese diabetic, severe combined immunodeficiency, interleukin-2 receptor gamma chain-null) mice.
To determine inhibition efficacy in vivo of Pomiferin in the TNBC clinical patient tumor, the therapeutic efficacy of Pomiferin in a patient-derived tumor xenograft mouse from the Jackson Laboratory PDX Live™ library was evaluated. The TM00089 breast invasive ductal carcinoma was selected, characterized as TNBC ER^−/PR^−/HER2^−, BRCA1^V757fs since TNBC tumors with BRCA1 mutations are generally the most aggressive and have the worst prognosis within the first five years after diagnosis compared to other types of breast cancers.

AML cell line (MoLM-13) = assay: CCK-8 cell viability, MoLM-13; assay type: cell-based, human; details: 1 uM, 5 uM, 10 uM; 48 hours
Experimental: In this example, activities of NC5, Compound III, and the known chemotherapeutic, Cytarabine, were evaluated in the AML cell line (MoLM-13). MoLM-13 cells were collected and seeded at 5,000 cells/well in 96-well plates. The cells were incubated for 24 hours before the addition of either DMSO control or drug at various concentrations. After an additional 48 hours of incubation, 3 μL of CCK-8 was added to every well and incubated at 37° C. for 3 hours. Absorbance was measured at 460 nm in a plate reader. […] The related absorbance was normalized and plotted as line graphs. p-values were determined through two tails student t-tests (*=p<0.5, **=p<0.01, ***=p<0.001).

CC(C)=CCc1c2c(c3occ(-c4ccc(O)c(O)c4)c(=O)c3c1O)C=CC(C)(C)O2 [Pomiferin, 3′,4′,5-Trihydroxy-6″,6″-dimethyl-6-(3-methylbut-2-en-1-yl)-6″H-pyrano[2″,3″:7,8]isoflavone]
P-ERK1/2 levels (Western blotting) ([1]; NC5 1, 5, 10 uM, 24 hours): reduces P-ERK1/2 levels | pCrkL levels (Western blotting) ([1]; NC5 1, 5, 10 uM, 24 hours): dramatically inhibited | BIM levels (Western blotting) ([1]; NC5, 24 hours): dramatically increased | pJNK levels (Western blotting) ([1]; NC5, 24 hours): dramatically increased | inhibition of the higher FRET caused by Ab1 (pCrkL) (CrkL; CrkL + Ab1, Mg2+ and ATP): 55% | FRET signal (CrkL; CrkL about 0.4, CrkL+Ab1 about 0.6): 0.5 | PBNK cells killing activity (Cr51 release) [2]: increased PBNK cells killing activity | PBNK killing (Cr51 release) [3]: increased | tumor growth ([4]; 5.0 μg/g Pomiferin vs vehicle): significantly more inhibited | median survival, fold longer than vehicle control ([4]; Pomiferin 5 μg/g): 1.4 fold | median survival ([4]; Pomiferin 5 μg/g, vehicle 39 days): 53 days | body weights ([4]; vs vehicle, during drug treatment period): not significantly different | cell viability (CCK-8) (AML cell line (MoLM-13)): decreased cell viability
